{
  "source": "PubChem BioAssay AID652249",
  "about": "(Broad Institute, 2013)",
  "note": "Records with an inconclusive call do not appear. Activity calls are given as the source filed them.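 The calls were made as follows: active = platelet aggregation inhibition above 50% relative to unstimulated and buffer-only controls; inactive = the rest, inconclusive results apart.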",
  "data": [
    {"test_system": "human washed platelets, SFLLRN-induced aggregation, aggregometer", "assay": "inhibition of SFLLRN-induced platelet aggregation, late-stage follow-up, mechanism study for PDI inhibitor project, cell-based, aggregometer, single point, dry powder samples (AID 652249)", "conditions": "at 30 µM; hits give high values", "values": [
      {"smiles": "CCOC(=O)C1(CCOc2ccccc2)CCN(Cc2ccc(O)cc2)CC1", "aggregation inhibition (transmittance)": "0% (inactive)"},
      {"smiles": "C/C1=C\\C[C@H](OC(=O)c2ccc(O)cc2)/C(C)=C/[C@@H](O)C(C)(C)CCC1", "aggregation inhibition (transmittance)": "100%"},
      {"smiles": "CCOC(=O)C1(CCOc2ccccc2)CCN(C(=O)c2ccc(O)c(Cl)c2)CC1", "aggregation inhibition (transmittance)": "100%"},
      {"smiles": "CC(C)OC(=O)C1(CCOc2ccccc2)CCN(Cc2ccc(O)c(Cl)c2)CC1", "aggregation inhibition (transmittance)": "97%"},
      {"smiles": "O=C(NC1CCCC1)C1(CCOc2ccccc2)CCN(Cc2ccc(O)c(Cl)c2)CC1", "aggregation inhibition (transmittance)": "1% (inactive)"},
      {"smiles": "CCOC(=O)C1(CCOc2ccccc2)CCN(Cc2ccc(OC)c(Cl)c2)CC1", "aggregation inhibition (transmittance)": "4% (inactive)"},
      {"smiles": "O=C(Nc1ccccc1)C1(CCOc2ccccc2)CCN(Cc2ccc(O)c(Cl)c2)CC1", "aggregation inhibition (transmittance)": "23% (inactive)"},
      {"smiles": "C/C1=C\\[C@@H](O)C(C)(C)CCCC2(C)OC2C[C@@H]1OC(=O)c1ccc(O)cc1", "note": "(stereo not given in full)", "aggregation inhibition (transmittance)": "17% (inactive)"},
      {"smiles": "CCN(C)C(=O)C1(CCOc2ccccc2)CCN(Cc2ccc(O)c(Cl)c2)CC1", "aggregation inhibition (transmittance)": "2% (inactive)"},
      {"smiles": "CC(C)(C)OC(=O)C1(CCOc2ccccc2)CCN(Cc2ccc(O)c(Cl)c2)CC1", "aggregation inhibition (transmittance)": "100%"}
    ]}
  ]
}
